Source: patent US8338420B1, “Treatment of Parkinson's disease and enhancement of dopamine signal using PDE 10 inhibitor” (Mitsubishi Tanabe Pharma Corporation, priority 2002, dated 2012)

Biological target: T1, PDE8 (PDE8A) (Homo sapiens, UniProt O60658)
T1 construct: His tag (hexahistidine, pcDNA4/HisMax) (N); made in house
Test: PDE assay, recombinant human PDE8A
Assay type: biochemical
Settings: substrate about 4.8 nM [3H]-cAMP and 0.1 μM cAMP
Text: Based on the information of cDNA sequence of human PDE7A (Genbank/EMBL Accession No. NM002603), a cDNA encoding human PDE7A was cloned by PCR method, according to a method described in Sasaki et al. (Sasaki et al., Biochem. Biophys. Res. Commun., vol. 271, pp. 575-583, 2000). Further, based on the information of cDNA sequence of human PDE8A (Genbank/EMBL Accession No. AF388183), a cDNA encoding human PDE8A was cloned by PCR method, according to a method described in Gamanuma et al. (Gamanuma et al., Cell Signal, 2003, vol. 15, pp. 565-574). Further, a cDNA encoding human PDE11A was obtained, according to a method reported in Yuasa et al. (Yuasa et al., J. Biol. Chem., vol. 275, pp. 31469-31479, 2000). Using these cDNAs, recombinant proteins of human PDE7A, human PDE8A, and human PDE11A were prepared as follows.
DNA fragments comprising a cDNA encoding human PDE7A, human PDE8A or human PDE11A were linked to pcDNA4/HisMax (available from Invitrogen), to give a vector plasmid for expression of human proteins, with a histidine tag peptide (hexahistidine), added to the N-terminus. COS-7 cells were transfected with these vector plasmids, and the cells were cultured in Dulbecco's modified Eagle medium containing 10% bovine fetal serum for about 24 hours. […]

T1 sequence (O60658 whole entry): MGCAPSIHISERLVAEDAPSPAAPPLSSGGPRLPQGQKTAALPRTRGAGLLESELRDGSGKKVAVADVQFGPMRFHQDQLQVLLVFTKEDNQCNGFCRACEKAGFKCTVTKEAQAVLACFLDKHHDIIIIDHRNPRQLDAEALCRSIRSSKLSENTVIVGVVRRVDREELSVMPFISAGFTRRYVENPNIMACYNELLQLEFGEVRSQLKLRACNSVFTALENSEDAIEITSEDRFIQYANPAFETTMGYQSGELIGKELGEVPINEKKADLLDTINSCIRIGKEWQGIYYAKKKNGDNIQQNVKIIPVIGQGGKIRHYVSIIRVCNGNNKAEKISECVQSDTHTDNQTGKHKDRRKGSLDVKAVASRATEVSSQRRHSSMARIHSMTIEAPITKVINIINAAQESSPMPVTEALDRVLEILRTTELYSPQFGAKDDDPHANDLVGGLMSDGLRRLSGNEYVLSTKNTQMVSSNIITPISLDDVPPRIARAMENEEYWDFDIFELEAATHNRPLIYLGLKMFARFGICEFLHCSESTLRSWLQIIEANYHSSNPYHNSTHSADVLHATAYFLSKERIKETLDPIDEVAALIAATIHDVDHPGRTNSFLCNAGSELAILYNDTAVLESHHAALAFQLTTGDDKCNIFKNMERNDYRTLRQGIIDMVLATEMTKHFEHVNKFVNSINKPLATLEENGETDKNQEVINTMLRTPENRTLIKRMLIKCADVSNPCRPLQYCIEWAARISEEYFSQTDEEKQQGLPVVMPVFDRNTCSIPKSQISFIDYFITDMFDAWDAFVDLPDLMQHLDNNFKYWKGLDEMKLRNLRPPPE

IC50: > 1 µM
SMILES: COc1ccc(-c2cc(N3CCCC3)nc(/C=C/c3nc(-n4ccnc4)c4ccccc4n3)n2)cc1OC [Compound A, 2-{(E)-2-[4-(1-imidazolyl)-quinazolin-2-yl]}ethenyl-4-(3,4-dimethoxy)phenyl-6-(pyrrolidin-1-yl)pyrimidine]
